In patent publication US12485154B2 (priority 2019, dated 2025) one finds Fatality data, which are given here for one compound.

This test deals with new influenza virus (A/California/04/2009(H1N1)). Format: in vivo. The following applies: H1N1-infected BALB/c mice (6 per group), observed 14 days after infection; ginseng concentrates 10 mg/kg/day for 14 days before and one week after inoculation; Tamiflu 2 mg/kg/day.

As for `CCOC(=O)C1=C[C@@H](OC(CC)CC)[C@H](NC(C)=O)[C@@H](N)C1` [Tamiflu], the Fatality was found to be 0%.
